Data: article PMC11439681, “The identification of potent dual-target monopolar spindle 1 (MPS1) and histone deacetylase 8 (HDAC8) inhibitors through pharmacophore modeling, molecular docking, molecular dynamics simulations, and biological evaluation” (Frontiers in Pharmacology, 2024)

Experiments:
Experiment in all cases: In vitro selectivity assay
Assay type in all cases: biochemical
Conditions in all cases: selectivity panel
EPHA6 = target: T1, EPHA6 (Homo sapiens, UniProt Q9UF33)
T1 construct: ICE Bioscience Inc. (assay service)
Description: (§1) The inhibitory effects of compound MPH-5 on a panel of 68 kinases and other histone deacetylases were evaluated to assess the selectivity profile of MPH-5. This experiment was conducted by ICE Bioscience Inc. (Beijing, China).

PTK6 = target: T2, PTK6 (Homo sapiens, UniProt Q13882)
T2 construct: ICE Bioscience Inc. (contract assay provider)
T2 sequence (Q13882 whole entry): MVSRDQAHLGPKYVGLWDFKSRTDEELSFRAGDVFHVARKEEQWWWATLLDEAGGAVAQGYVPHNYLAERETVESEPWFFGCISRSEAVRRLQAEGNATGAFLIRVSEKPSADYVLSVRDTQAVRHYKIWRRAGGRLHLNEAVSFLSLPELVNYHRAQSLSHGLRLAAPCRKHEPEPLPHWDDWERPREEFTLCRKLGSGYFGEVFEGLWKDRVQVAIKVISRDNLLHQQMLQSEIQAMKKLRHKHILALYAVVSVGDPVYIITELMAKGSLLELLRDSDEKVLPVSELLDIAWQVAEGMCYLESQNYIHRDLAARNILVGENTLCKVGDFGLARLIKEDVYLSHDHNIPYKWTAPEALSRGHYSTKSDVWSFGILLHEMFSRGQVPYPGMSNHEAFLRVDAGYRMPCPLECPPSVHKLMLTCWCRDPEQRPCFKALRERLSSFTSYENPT
Description: as §1

ITK = ITK (Homo sapiens, UniProt Q08881)
Description: as §1

JAK1 = JAK1 (Homo sapiens, UniProt P23458)
Description: as §1

FYN = FYN (Homo sapiens, UniProt P06241)
Description: as §1

RET = target: T3, RET (Homo sapiens, UniProt P07949)
T3 construct: ICE Bioscience Inc. (contract assay provider)
Description: as §1

CSF1R = target: T4, CSF1R (Homo sapiens, UniProt P07333)
T4 construct: ICE Bioscience Inc. (assay service)
Description: as §1

EPHB4 = EPHB4 (Homo sapiens, UniProt P54760)
Description: as §1

FGFR4 = FGFR4 (Homo sapiens, UniProt P22455)
Description: as §1

YES1 = YES1 (Homo sapiens, UniProt P07947)
Description: as §1

EPHA3 = target: T5, EPHA3 (Homo sapiens, UniProt P29320)
T5 construct: ICE Bioscience Inc. (assay service)
Description: as §1

SRC = target: T6, SRC (Homo sapiens, UniProt P12931)
T6 construct: ICE Bioscience Inc. (contract assay provider)
T6 sequence (P12931 whole entry): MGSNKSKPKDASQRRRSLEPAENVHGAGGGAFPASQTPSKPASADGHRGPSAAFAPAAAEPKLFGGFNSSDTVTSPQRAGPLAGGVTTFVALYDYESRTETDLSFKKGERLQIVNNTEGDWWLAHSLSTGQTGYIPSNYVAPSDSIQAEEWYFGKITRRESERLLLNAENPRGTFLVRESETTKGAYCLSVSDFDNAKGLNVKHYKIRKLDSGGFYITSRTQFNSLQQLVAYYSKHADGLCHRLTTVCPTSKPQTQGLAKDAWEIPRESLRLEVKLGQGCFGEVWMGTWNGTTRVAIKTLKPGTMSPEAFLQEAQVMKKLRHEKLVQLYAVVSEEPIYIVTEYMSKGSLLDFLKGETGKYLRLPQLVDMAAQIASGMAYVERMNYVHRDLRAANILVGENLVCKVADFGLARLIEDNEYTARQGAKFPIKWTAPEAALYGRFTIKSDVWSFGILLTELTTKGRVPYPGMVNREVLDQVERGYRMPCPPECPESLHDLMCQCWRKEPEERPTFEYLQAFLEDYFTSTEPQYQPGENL
Description: as §1

MET = target: T7, MET (Homo sapiens, UniProt P08581)
T7 construct: ICE Bioscience Inc. (contract assay provider)
Description: as §1

EPHA8 = target: T8, EPHA8 (Homo sapiens, UniProt P29322)
T8 construct: ICE Bioscience Inc. (assay service)
T8 sequence (P29322 28-1005): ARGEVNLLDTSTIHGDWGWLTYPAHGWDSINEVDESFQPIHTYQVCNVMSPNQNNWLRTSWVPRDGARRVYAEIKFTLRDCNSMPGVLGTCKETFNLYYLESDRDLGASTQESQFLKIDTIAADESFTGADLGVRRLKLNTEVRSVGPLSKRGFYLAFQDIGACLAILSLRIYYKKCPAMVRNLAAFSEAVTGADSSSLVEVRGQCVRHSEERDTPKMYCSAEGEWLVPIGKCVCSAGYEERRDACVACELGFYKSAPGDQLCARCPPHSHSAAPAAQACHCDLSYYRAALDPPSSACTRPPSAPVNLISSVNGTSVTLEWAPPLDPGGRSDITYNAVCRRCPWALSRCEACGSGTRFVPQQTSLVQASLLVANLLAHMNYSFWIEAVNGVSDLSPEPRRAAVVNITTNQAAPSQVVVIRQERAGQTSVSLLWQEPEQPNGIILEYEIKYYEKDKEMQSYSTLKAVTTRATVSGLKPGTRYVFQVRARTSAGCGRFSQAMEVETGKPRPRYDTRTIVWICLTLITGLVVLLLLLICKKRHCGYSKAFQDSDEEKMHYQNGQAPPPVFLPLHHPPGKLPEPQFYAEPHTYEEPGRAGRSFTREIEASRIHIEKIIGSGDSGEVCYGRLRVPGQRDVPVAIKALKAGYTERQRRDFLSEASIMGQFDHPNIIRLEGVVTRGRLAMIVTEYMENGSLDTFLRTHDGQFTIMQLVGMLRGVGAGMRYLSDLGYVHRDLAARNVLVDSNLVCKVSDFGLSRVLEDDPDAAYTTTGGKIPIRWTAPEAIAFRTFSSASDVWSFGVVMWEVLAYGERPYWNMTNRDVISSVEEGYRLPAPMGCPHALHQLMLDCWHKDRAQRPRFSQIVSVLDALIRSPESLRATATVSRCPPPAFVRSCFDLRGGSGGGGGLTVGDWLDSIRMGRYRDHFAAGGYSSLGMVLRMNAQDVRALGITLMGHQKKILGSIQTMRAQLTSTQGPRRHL
Description: as §1

CDK2 = target: T9, CDK2 (Homo sapiens, UniProt P24941)
T9 construct: ICE Bioscience Inc. (assay service)
Description: as §1

PDGFRB = target: T10, PDGFRB (Homo sapiens, UniProt P09619)
T10 construct: ICE Bioscience Inc. (contract assay provider)
Description: as §1

NTRK2 = target: T11, NTRK2 (Homo sapiens, UniProt Q16620)
T11 construct: ICE Bioscience Inc. (contract assay provider)
T11 sequence (Q16620 32-822): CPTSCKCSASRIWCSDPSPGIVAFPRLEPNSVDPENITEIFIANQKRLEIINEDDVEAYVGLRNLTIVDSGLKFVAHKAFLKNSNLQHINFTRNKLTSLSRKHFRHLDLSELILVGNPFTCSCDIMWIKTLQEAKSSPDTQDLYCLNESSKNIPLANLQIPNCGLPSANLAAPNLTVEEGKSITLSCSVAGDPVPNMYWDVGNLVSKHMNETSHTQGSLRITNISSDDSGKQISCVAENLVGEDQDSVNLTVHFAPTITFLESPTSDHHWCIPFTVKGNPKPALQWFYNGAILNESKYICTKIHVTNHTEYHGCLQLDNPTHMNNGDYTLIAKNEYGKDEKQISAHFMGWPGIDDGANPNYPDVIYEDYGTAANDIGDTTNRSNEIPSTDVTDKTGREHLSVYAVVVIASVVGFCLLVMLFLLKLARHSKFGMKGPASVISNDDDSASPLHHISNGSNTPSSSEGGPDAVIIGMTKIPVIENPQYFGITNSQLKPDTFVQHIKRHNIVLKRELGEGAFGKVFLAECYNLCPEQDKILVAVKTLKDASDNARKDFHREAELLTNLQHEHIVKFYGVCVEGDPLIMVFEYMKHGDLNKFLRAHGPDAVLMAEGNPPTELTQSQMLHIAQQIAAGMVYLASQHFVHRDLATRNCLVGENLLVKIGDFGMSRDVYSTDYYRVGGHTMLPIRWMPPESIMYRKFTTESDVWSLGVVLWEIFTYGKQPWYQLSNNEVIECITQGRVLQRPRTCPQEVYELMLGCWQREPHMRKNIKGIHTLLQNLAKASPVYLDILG
Description: as §1

ROS1 = ROS1 (Homo sapiens, UniProt P08922)
Description: as §1

SYK = target: T12, SYK (Homo sapiens, UniProt P43405)
T12 construct: ICE Bioscience Inc. (contract assay provider)
Description: as §1

IGF1R = IGF1R (Homo sapiens, UniProt P08069)
Description: as §1

BTK = target: T13, BTK (Homo sapiens, UniProt Q06187)
T13 construct: ICE Bioscience Inc. (assay service)
Description: as §1

HDAC6 = target: T14, HDAC6 (Homo sapiens, UniProt Q9UBN7)
T14 construct: ICE Bioscience Inc. (Beijing, China), the contract lab that ran the assay
Description: as §1

EPHB3 = target: T15, EPHB3 (Homo sapiens, UniProt P54753)
T15 construct: ICE Bioscience Inc. (assay service)
Description: as §1

ABL2 = target: T16, ABL2 (Homo sapiens, UniProt P42684)
T16 construct: ICE Bioscience Inc. (assay service)
Description: as §1

EPHB2 = target: T17, EPHB2 (Homo sapiens, UniProt P29323)
T17 construct: ICE Bioscience Inc. (assay service)
Description: as §1

HCK = HCK (Homo sapiens, UniProt P08631)
Description: as §1

FGFR1 = FGFR1 (Homo sapiens, UniProt P11362)
Description: as §1

PTK2 = target: T18, PTK2 (Homo sapiens, UniProt Q05397)
T18 construct: ICE Bioscience Inc. (contract assay provider)
Description: as §1

KDR = target: T19, KDR (Homo sapiens, UniProt P35968)
T19 construct: ICE Bioscience Inc. (contract assay provider)
Description: as §1

DDR2 = target: T20, DDR2 (Homo sapiens, UniProt Q16832)
T20 construct: ICE Bioscience Inc. (assay service)
Description: as §1

KIT = target: T21, KIT (Homo sapiens, UniProt P10721)
T21 construct: ICE Bioscience Inc. (contract assay provider)
Description: as §1

EPHA2 = target: T22, EPHA2 (Homo sapiens, UniProt P29317)
T22 construct: ICE Bioscience Inc. (assay service)
T22 sequence (P29317 24-976): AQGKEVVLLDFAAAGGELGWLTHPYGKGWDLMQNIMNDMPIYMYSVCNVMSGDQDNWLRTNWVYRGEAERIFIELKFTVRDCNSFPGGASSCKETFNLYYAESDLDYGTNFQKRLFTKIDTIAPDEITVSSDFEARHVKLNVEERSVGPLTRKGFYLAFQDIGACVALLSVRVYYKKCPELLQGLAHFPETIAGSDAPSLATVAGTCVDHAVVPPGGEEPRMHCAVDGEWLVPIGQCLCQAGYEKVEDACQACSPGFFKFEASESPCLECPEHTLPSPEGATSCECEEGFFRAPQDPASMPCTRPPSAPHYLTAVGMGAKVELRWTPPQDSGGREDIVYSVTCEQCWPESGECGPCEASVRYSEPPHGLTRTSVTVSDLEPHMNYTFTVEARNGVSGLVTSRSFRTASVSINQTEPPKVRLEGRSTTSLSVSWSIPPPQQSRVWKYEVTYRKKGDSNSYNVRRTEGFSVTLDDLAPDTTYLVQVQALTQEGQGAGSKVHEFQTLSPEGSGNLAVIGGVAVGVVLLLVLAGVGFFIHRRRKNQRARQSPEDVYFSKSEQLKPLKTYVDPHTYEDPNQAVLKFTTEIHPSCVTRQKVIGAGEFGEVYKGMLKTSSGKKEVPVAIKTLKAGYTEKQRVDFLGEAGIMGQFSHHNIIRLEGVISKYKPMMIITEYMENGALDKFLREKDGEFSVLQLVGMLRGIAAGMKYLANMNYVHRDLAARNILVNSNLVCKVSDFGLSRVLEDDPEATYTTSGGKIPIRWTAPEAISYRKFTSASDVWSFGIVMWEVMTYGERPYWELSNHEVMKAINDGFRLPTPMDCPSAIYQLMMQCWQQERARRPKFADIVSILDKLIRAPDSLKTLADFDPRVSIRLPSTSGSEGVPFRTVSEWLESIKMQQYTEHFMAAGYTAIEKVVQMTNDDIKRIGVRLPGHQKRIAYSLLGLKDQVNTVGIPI
Description: as §1

FES = FES (Homo sapiens, UniProt P07332)
Chain of FES (P07332 whole entry): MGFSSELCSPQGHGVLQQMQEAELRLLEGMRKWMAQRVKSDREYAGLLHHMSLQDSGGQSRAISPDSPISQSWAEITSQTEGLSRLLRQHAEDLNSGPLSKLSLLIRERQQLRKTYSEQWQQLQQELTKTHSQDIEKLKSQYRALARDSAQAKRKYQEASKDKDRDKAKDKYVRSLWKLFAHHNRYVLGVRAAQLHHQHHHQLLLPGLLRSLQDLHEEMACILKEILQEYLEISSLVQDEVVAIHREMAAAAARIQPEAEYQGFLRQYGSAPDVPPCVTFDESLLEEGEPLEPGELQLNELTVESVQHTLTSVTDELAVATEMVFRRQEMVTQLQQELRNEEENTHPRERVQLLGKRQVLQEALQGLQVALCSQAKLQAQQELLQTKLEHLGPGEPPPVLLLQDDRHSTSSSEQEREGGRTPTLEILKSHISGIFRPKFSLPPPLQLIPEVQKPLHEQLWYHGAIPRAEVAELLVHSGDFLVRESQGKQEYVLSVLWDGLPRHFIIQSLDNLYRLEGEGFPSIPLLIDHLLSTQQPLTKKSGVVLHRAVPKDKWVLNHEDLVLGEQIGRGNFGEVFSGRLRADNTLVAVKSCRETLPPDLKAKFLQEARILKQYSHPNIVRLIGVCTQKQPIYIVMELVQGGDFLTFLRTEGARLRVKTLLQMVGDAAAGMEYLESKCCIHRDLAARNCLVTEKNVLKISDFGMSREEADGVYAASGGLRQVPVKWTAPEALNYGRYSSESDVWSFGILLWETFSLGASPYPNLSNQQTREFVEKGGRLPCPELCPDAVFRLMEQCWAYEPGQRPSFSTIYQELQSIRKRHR
Description: as §1

RAF1 = RAF1 (Homo sapiens, UniProt P04049)
Description: as §1

NTRK3 = target: T23, NTRK3 (Homo sapiens, UniProt Q16288)
T23 construct: ICE Bioscience Inc. (contract assay provider)
Description: as §1

HDAC1 = target: T24, HDAC1 (Homo sapiens, UniProt Q13547)
T24 construct: ICE Bioscience Inc. (contract assay provider)
Description: as §1

FGFR3 = FGFR3 (Homo sapiens, UniProt P22607)
Description: as §1

FGR = FGR (Homo sapiens, UniProt P09769)
Chain of FGR (P09769 whole entry): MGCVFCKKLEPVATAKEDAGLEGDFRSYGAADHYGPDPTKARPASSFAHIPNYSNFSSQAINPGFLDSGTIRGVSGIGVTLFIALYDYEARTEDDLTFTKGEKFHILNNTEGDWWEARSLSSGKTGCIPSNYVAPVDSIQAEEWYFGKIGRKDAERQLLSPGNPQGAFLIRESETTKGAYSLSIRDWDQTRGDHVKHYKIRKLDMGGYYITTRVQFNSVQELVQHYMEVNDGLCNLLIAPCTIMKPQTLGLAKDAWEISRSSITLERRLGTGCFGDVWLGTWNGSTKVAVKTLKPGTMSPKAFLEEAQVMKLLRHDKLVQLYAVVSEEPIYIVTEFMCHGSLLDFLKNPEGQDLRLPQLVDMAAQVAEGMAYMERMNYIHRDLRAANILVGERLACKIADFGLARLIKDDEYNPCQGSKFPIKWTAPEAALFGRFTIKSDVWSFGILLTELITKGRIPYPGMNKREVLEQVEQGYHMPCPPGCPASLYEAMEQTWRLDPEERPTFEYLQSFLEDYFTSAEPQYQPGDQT
Description: as §1

MST1R = target: T25, MST1R (Homo sapiens, UniProt Q04912)
T25 construct: ICE Bioscience Inc. (contract assay provider)
Description: as §1

ABL1 = target: T26, ABL1 (Homo sapiens, UniProt P00519)
T26 construct: ICE Bioscience Inc. (assay service)
Description: as §1

MERTK = target: T27, MERTK (Homo sapiens, UniProt Q12866)
T27 construct: ICE Bioscience Inc. (contract assay provider)
Description: as §1

FRK = FRK (Homo sapiens, UniProt P42685)
Description: as §1

JAK3 = target: T28, JAK3 (Homo sapiens, UniProt P52333)
T28 construct: ICE Bioscience Inc. (contract assay provider)
Description: as §1

Measured: IC50

Cn1cc(-c2cc3cnc(Nc4ccc(-c5cncn5/C=C/C(=O)NO)cc4Cl)cc3n2C(=O)OC(C)(C)C)cn1 [MPH-5]
> 10 µM: EPHA6 | PTK6 | ITK | JAK1 | FYN | RET | CSF1R | EPHB4 | FGFR4 | YES1 | EPHA3 | SRC | MET | EPHA8 | CDK2 | PDGFRB | NTRK2 | ROS1 | SYK | IGF1R | BTK | HDAC6 | EPHB3 | ABL2 | EPHB2 | HCK | FGFR1 | PTK2 | KDR | DDR2 | KIT | EPHA2 | FES | RAF1 | NTRK3 | HDAC1 | FGFR3 | FGR | MST1R | ABL1 | MERTK | FRK | JAK3
